Our source for the TGI values is PubChem BioAssay (NCI).

Among the test systems are CAKI-1 renal; DU-145 prostate; HCT-116 colon; HOP-62 NSCLC; IGROV1 ovarian; K-562 leukemia; KM12 colon; M14 melanoma; MALME-3M melanoma; MDA-N; NCI-H226 lung; OVCAR-5 ovarian; PC-3 prostate; SK-MEL-2 melanoma; SK-MEL-5 melanoma; SK-OV-3 ovarian; UACC-257 melanoma; SF-539 CNS.
Common to all, as to assay: NCI-60 cell line screen, 48 h

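Interpolation was linear, between the two tested concentrations surrounding the appropriate level; five concentrations were tested over 48 hours in 96-well plates. TGI marks complete inhibition of growth.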

Take `CC1OC(O[C@H]2C3C=CO[C@@H](OC4OC(CO)C(O)C(O)C4O)C3[C@@]3(COC(=O)/C=C/c4ccc(O)cc4)O[C@@H]23)C(O)C(O)C1O` (some centres undefined): the TGI in the assay with CAKI-1 renal, in the assay on DU-145 prostate, with HCT-116 colon, with HOP-62 NSCLC, in the assay on IGROV1 ovarian and with K-562 leukemia was above 100 µM in each case. Further, the TGI with KM12 colon, in the assay on M14 melanoma, in the assay on MALME-3M melanoma, in the assay on MDA-N, in the assay on NCI-H226 lung and in the assay with OVCAR-5 ovarian was above 100 µM each time. The TGI in the assay with PC-3 prostate, in the assay with SK-MEL-2 melanoma, in the assay on SK-MEL-5 melanoma, in the assay on SK-OV-3 ovarian and in the assay on UACC-257 melanoma was above 100 µM each time.

Take `N#CCCC1(CCC#N)CCCCCCCCC(CCC#N)(CCC#N)C(=O)C1=O`: the TGI with CAKI-1 renal, in the assay on DU-145 prostate, with HCT-116 colon, in the assay with HOP-62 NSCLC, in the assay with K-562 leukemia and in the assay on KM12 colon was above 100 µM in each case. Also, the TGI with M14 melanoma, with MALME-3M melanoma, in the assay with MDA-N, in the assay with NCI-H226 lung, with OVCAR-5 ovarian and with PC-3 prostate was above 100 µM throughout. For the same compound, the TGI in the assay with SF-539 CNS, in the assay on SK-MEL-2 melanoma, in the assay with SK-OV-3 ovarian and with UACC-257 melanoma was above 100 µM each time.

As to `CCOC(=O)Cc1nc2sc(S(N)(=O)=O)nn2c1Br`, the TGI is 37.2 µM in the assay with CAKI-1 renal; above 100 µM with DU-145 prostate; 96.5 µM in the assay with HCT-116 colon; above 100 µM in the assay with HOP-62 NSCLC; 90.8 µM in the assay on IGROV1 ovarian; above 100 µM in the assay with K-562 leukemia. In addition, the TGI in the assay on KM12 colon is above 100 µM; in the assay with M14 melanoma, 33.8 µM; in the assay with MALME-3M melanoma it was 81.7 µM; with MDA-N it was above 100 µM; in the assay on NCI-H226 lung it was 73 µM; in the assay with OVCAR-5 ovarian, above 100 µM. Also, the TGI in the assay on PC-3 prostate was 63.9 µM; in the assay on SK-MEL-2 melanoma it was above 100 µM; in the assay with SK-MEL-5 melanoma, 42.4 µM; in the assay with SK-OV-3 ovarian it was above 100 µM; with UACC-257 melanoma it was above 100 µM.

Consider `CCCCCCCCCCCCOP(=O)(O)OCC(N)C(=O)O` (centres undefined), for which the TGI in the assay with CAKI-1 renal was 95.8 µM; in the assay with DU-145 prostate, above 100 µM; with HCT-116 colon, 27.6 µM; in the assay on HOP-62 NSCLC, 31.6 µM; with IGROV1 ovarian, above 100 µM; in the assay with K-562 leukemia, above 100 µM. In addition, the TGI in the assay with M14 melanoma is above 100 µM; in the assay on MALME-3M melanoma, above 100 µM; with MDA-N, 62.6 µM; in the assay on NCI-H226 lung it was above 100 µM; in the assay on OVCAR-5 ovarian it was above 100 µM; with PC-3 prostate it was 35.1 µM. The TGI with SF-539 CNS was 51.6 µM; in the assay with SK-MEL-2 melanoma, 51.8 µM; with SK-MEL-5 melanoma, 61.7 µM; with SK-OV-3 ovarian, 50.1 µM; with UACC-257 melanoma, above 100 µM.

As for `O=C1CCC(=O)N1n1c(Cc2ccc(Cl)cc2)n[nH]c1=O`, the TGI in the assay with CAKI-1 renal, in the assay on DU-145 prostate, with HCT-116 colon, in the assay with IGROV1 ovarian, in the assay on K-562 leukemia and with KM12 colon was above 100 µM in each case. In addition, the TGI in the assay on M14 melanoma, with MALME-3M melanoma, with MDA-N, with NCI-H226 lung, with OVCAR-5 ovarian and with PC-3 prostate was above 100 µM each time. Moreover, the TGI in the assay with SF-539 CNS, in the assay on SK-MEL-2 melanoma, with SK-MEL-5 melanoma, in the assay on SK-OV-3 ovarian and in the assay on UACC-257 melanoma was above 100 µM each time.

Regarding `COC(=O)C1=C(O)C(C(=O)OC)[C@]2(O)[C@H](C(=O)OC)[C@H]1C[C@@H](c1c(Cl)cccc1Cl)[C@H]2C(=O)OC` (some centres undefined), the TGI worked out at 11.3 µM in the assay on CAKI-1 renal; 8.2 µM in the assay with DU-145 prostate; 3.42 µM in the assay on HCT-116 colon; 10.8 µM in the assay with HOP-62 NSCLC; 5.99 µM with IGROV1 ovarian; 6.92 µM with K-562 leukemia. The TGI in the assay on KM12 colon turned out to be 8.6 µM; with M14 melanoma, 2.88 µM; in the assay with MALME-3M melanoma, 5.25 µM; in the assay with MDA-N it was 3.02 µM; in the assay on NCI-H226 lung it was 4.87 µM; in the assay with PC-3 prostate, 10.5 µM. Moreover, the TGI in the assay on SF-539 CNS is 3.78 µM; with SK-MEL-2 melanoma, 3.33 µM; with SK-MEL-5 melanoma it was 3.02 µM; with SK-OV-3 ovarian, 14.2 µM; with UACC-257 melanoma, 6.08 µM.

In the case of `CN(C)c1ccccc1CN1CCCN(Cc2ccccc2N(C)C)C1c1ccncc1`, the TGI in the assay with CAKI-1 renal was determined as 34.6 µM; with DU-145 prostate it was 31.5 µM; in the assay with HCT-116 colon it was 23.3 µM; in the assay on HOP-62 NSCLC, 30.3 µM; with IGROV1 ovarian, 28.1 µM; in the assay on K-562 leukemia, 23.9 µM. For the same compound, the TGI in the assay with KM12 colon was 41.7 µM; with M14 melanoma, 8.62 µM; with MALME-3M melanoma, 23.4 µM; in the assay on MDA-N, 23.8 µM; with NCI-H226 lung, 38.7 µM; in the assay on OVCAR-5 ovarian it was 40.9 µM. In addition, the TGI in the assay with PC-3 prostate was above 100 µM; in the assay with SF-539 CNS, 36 µM; in the assay on SK-MEL-2 melanoma, 36.5 µM; with SK-MEL-5 melanoma, 18.3 µM; in the assay with SK-OV-3 ovarian it was 32.9 µM; with UACC-257 melanoma it was 7.98 µM.
